Laboratory results: the supplement of paper PMC10307832

Assays:
Assay in all cases: relative viability (nuclei count vs DMSO), 5 days (fraction); higher = more cells survive
[1] = compound: CC[C@H](Nc1ncnc2[nH]cnc12)c1nc2cccc(F)c2c(=O)n1-c1ccccc1 [Idelalisib] + Cc1nc(NC(=O)N2CCC[C@H]2C(N)=O)sc1-c1ccnc(C(C)(C)C(F)(F)F)c1 [Alpelisib] (partner 2 µM)
How it was run: (§1)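 Dosing by pin tool came one day after lung cancer cell lines were seeded in 1536-well plates, using either one drug or a fixed anchor-drug dose plus five library-drug doses (not always all listed) in √10 steps. After 5 days, nuclei were counted on 4× images. Relative viability is treated-well nuclei count divided by vehicle-well nuclei count, and values are medians of duplicate plates.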

[2] = compound: CC[C@H](Nc1ncnc2[nH]cnc12)c1nc2cccc(F)c2c(=O)n1-c1ccccc1 [Idelalisib] + Cc1cc(Nc2cc(N3CCN(C)CC3)nc(Sc3ccc(NC(=O)C4CC4)cc3)n2)n[nH]1 [Tozasertib] (partner 0.1 µM)
How it was run: as §1

[3] = compound: CC[C@H](Nc1ncnc2[nH]cnc12)c1nc2cccc(F)c2c(=O)n1-c1ccccc1 [Idelalisib] + C[C@@H](Oc1cc(-c2cnn(C3CCNCC3)c2)cnc1N)c1c(Cl)ccc(F)c1Cl [Crizotinib] (partner 1 µM)
How it was run: as §1

[4] = compound: CC[C@H](Nc1ncnc2[nH]cnc12)c1nc2cccc(F)c2c(=O)n1-c1ccccc1 [Idelalisib] + CS(=O)(=O)CCNCc1ccc(-c2ccc3ncnc(Nc4ccc(OCc5cccc(F)c5)c(Cl)c4)c3c2)o1 [Lapatinib] (partner 2 µM)
How it was run: as §1

| Cell Line | relative viability ([1]; first compound 0.04 µM) | relative viability ([1]; first compound 0.1265 µM) | relative viability ([1]; first compound 1.265 µM) | relative viability ([1]; first compound 4 µM) | relative viability ([2]; first compound 0.04 µM) | relative viability ([2]; first compound 0.1265 µM) | relative viability ([2]; first compound 0.4 µM) | relative viability ([2]; first compound 1.265 µM) | relative viability ([2]; first compound 4 µM) | relative viability ([3]; first compound 0.04 µM) | relative viability ([3]; first compound 0.1265 µM) | relative viability ([3]; first compound 1.265 µM) | relative viability ([3]; first compound 4 µM) | relative viability ([4]; first compound 0.04 µM) | relative viability ([4]; first compound 0.1265 µM) | relative viability ([4]; first compound 0.4 µM) | relative viability ([4]; first compound 1.265 µM) | relative viability ([4]; first compound 4 µM) | relative viability ([1]; first compound 0.4 µM) | relative viability ([3]; first compound 0.4 µM) |
| --- | --- | --- | --- | --- | --- | --- | --- | --- | --- | --- | --- | --- | --- | --- | --- | --- | --- | --- | --- | --- |
| NCI-H441 | 0.987 | 0.455 | 0.839 | 0.611 | 0.725 | 0.685 | 0.728 | 0.536 | 0.591 | 1.15 | 0.702 | 0.68 | 0.654 |  |  |  |  |  |  |  |
| NCI-H520 | 0.862 | 0.878 | 0.769 | 0.349 | 0.468 | 0.4 | 0.406 | 0.405 | 0.405 | 0.782 | 0.727 | 0.737 | 0.623 | 0.776 | 0.999 | 0.717 | 0.923 | 0.684 | 0.64 | 0.717 |
| CAL-12T | 1.34 | 1.18 | 0.966 | 0.971 | 0.323 | 0.254 | 0.295 | 0.325 | 0.265 | 0.769 | 0.636 | 0.635 | 0.518 | 0.672 | 0.7 | 0.616 | 0.471 | 0.501 | 0.898 | 0.562 |
| HCC-827 | 0.977 | 0.968 | 0.894 | 0.506 | 0.457 | 0.447 | 0.389 | 0.453 | 0.398 | 0.978 | 0.943 | 0.927 | 0.838 | 0.225 | 0.191 | 0.176 | 0.178 | 0.157 | 0.92 | 0.864 |
| LC-2-ad | 0.887 | 0.683 | 0.893 | 0.637 | 0.44 | 0.455 | 0.374 | 0.397 | 0.457 | 0.427 | 0.415 | 0.439 | 0.508 | 1.04 | 0.963 | 0.949 | 1.05 | 0.868 | 0.959 | 0.447 |
| NCI-H2170 | 0.795 | 0.854 | 0.688 | 0.547 | 0.796 | 0.706 | 0.69 | 0.727 | 0.633 | 1.23 | 1.18 | 1.07 | 0.983 | 0.285 | 0.267 | 0.242 | 0.29 | 0.29 | 0.708 | 1.07 |
| SW 1573 | 0.822 | 0.612 | 0.729 | 0.633 | 0.168 | 0.181 | 0.163 | 0.201 | 0.142 | 0.794 | 0.682 | 0.832 | 0.833 | 1.17 | 1.06 | 0.913 | 1.12 | 1.27 | 0.711 | 0.836 |
| SK-MES-1 | 0.837 | 0.913 | 0.715 | 0.574 | 0.972 | 1.05 | 0.955 | 0.964 | 0.931 | 1.06 | 0.959 | 0.876 | 0.789 | 0.467 | 0.445 | 0.432 | 0.443 | 0.396 | 0.753 | 0.888 |
| NCI-H1648 |  |  |  |  | 0.489 | 0.373 | 0.412 | 0.425 | 0.217 |  |  |  |  |  |  |  |  |  |  |  |
| NCI-H1793 | 0.835 | 0.571 | 0.671 | 0.529 | 0.344 | 0.311 | 0.222 | 0.229 | 0.225 |  |  |  |  | 0.664 | 0.635 | 0.406 | 0.583 | 0.651 | 0.392 |  |
| NCI-H1299 | 1.02 | 1.03 | 1.03 | 1.15 |  |  |  |  |  | 0.99 | 0.969 | 1.08 | 1.01 | 0.927 | 0.977 | 0.943 | 1.09 | 1.02 | 1.02 | 0.919 |
| LCLC-97TM1 | 0.274 | 0.211 | 0.284 | 0.168 | 0.299 | 0.172 | 0.201 | 0.207 | 0.207 | 0.338 | 0.212 | 0.422 | 0.295 | 0.913 | 1.28 |  | 1.08 | 0.602 |  |  |
| NCI-H1915 | 1.14 | 1.11 | 1.11 | 1.04 | 0.55 | 0.406 | 0.374 | 0.407 | 0.402 | 0.989 | 0.865 | 0.979 | 0.895 | 1.06 | 1 | 0.96 | 1.11 | 0.922 | 1.03 | 0.848 |
| NCI-H661 | 0.708 | 0.642 | 0.718 | 0.813 | 0.414 | 0.358 | 0.391 | 0.358 | 0.408 | 1.04 |  | 1.14 | 0.943 | 0.44 | 0.433 | 0.39 | 0.367 | 0.391 | 0.637 | 1.08 |
| NCI-H2405 | 0.811 | 0.642 | 0.683 | 0.544 | 0.841 | 0.864 | 0.671 | 0.762 | 0.672 | 0.846 | 0.814 | 0.76 | 0.692 | 1.16 | 1.07 | 0.897 | 1.14 | 1.04 | 0.537 | 0.708 |
| NCI-H2347 | 0.964 | 1 | 1.07 | 0.881 | 0.591 | 0.517 | 0.408 | 0.443 | 0.441 | 0.586 | 0.734 | 0.851 | 0.666 | 0.942 | 0.917 | 0.84 | 1.01 | 0.969 | 0.989 | 0.64 |
| NCI-H1651 | 0.921 | 0.864 | 0.964 | 0.845 | 0.673 | 0.623 | 0.615 | 0.593 | 0.605 | 0.919 | 0.861 | 0.864 | 0.876 | 0.707 | 1 | 0.577 | 0.825 | 0.868 | 0.907 | 0.846 |
| H3255 | 0.652 | 0.683 | 0.518 | 0.607 | 0.646 | 0.852 | 0.583 | 0.568 | 0.544 | 0.77 | 0.898 | 0.876 | 0.734 | 0.297 | 0.283 | 0.258 | 0.233 | 0.203 | 0.591 | 0.757 |
